The record followed here is patent US4562176A, “Method and composition for treating cancer” (priority 1985, dated 1985).

SMILES strings stand for the structures. In brackets after ≈: the same amount, converted by molar mass. Numbered stars: 1 amine (or outer) side, 2 acyl side, 3 side chain; on linkers, the order of the positions; unused ones are H or OH. Bridge positions count the residues as written; N and C are the ends. Square brackets hold non-standard residues; d marks the D form. Peptide text beside a SMILES is read from it. I, II: the chains in the order shown. Actinocin(9to1) = Cc1c2oc3c(C)ccc(C(=O)[*:1])c3nc-2c(C(=O)[*:2])c(N)c1=O; NMeV = CN[C@H](C(=O)O)C(C)C; Sar = CNCC(=O)O

Series [1] relates to human lymphoblastic leukemia cells (CCRF-CEM). As to the kind of experiment: In vitro growth inhibition of CCRF-CEM cells. Format: cell-based. The conditions noted are these: for In Vitro (CCRF-CEM) ID50: cells in log-phase growth, suspension culture, final growth medium 5% Me2SO. How it is done:
^b Human lymphoblastic luekemia cells in logphase growth and in a
suspension culture. Compounds were dissolved in Me2 SO medium, final
growth medium contained 5% Me2 SO.
In vitro growth inhibition of the analogues were assayed against human lymphoblastic leukemia cells (CCRF-CEM) in log phase. The most cyctoxic are AMD-OZN analogues 2b and 2g and AMD-OZL analogues 4a-4c. However, compared to AMD, they are several fold less cytotoxic to CEM-cells in vitro.

Series [2] is described as follows: Solubility in distilled water. How it is done:
SOLUBILITY OF ACTINOMYCIN D AND ANALOGUES 2b, 3b AND 4b IN DISTILLED WATER AT 20° C. AND 4° C.

In series [3] the test system is DNA. Kind of series: DNA-drug binding by difference spectral (absorption and CD) techniques. As to conditions: for Diff. CD Spectra -Δ[θ]max (nm): DNA-bound vs combined individual spectra; for Diff. CD Spectra -Δ[θ]max (nm) / Diff. Absorption Spectra -Δεmax (nm): 340-600 nm, wavelength in brackets, phosphate buffer pH 7.0; for DNA binding (in words): difference spectral or ΔTm techniques; for Diff. Absorption Spectra -Δεmax (nm): free minus DNA-bound spectrum. An excerpt: ^b Diff. Absorption Spectra is the calculated absorption spectra
obtained by subtracting the spectrum of the DNAbound analogue from the
spectrum of the free analogue, measured at 340-600 nm.
^c Diff. CD Spectra is the calculated CD Spectra obtained as the
difference of the DNAbound from the combined individual spectra of
analogues and DNA at 340-600 nm.
(§1) Medium: 0.01 M phosphate containing 10^-4 EDTA, buffer pH 7.0.
DNA-DRUG BINDING BY DIFFERENCE SPECTRAL AND THERMAL DEVATURATION OF DNA (ΔTm) TECHNIQUES
These experiments were performed according to the methods described by Sengupta et al., Cancer Chemother. Rep., 1974, 58, p. 35, Sengupta et al, J. Med. Chem., 1981, 24, p. 1052 and Sengupta et al, 1983, 26, p. 448, Sengupta et al, 1978, Biochem. Biophys Acta, 521, p. 89.

Series [4] has as its system purified calfthymus DNA. Kind of series: Thermal denaturation of DNA (ΔTm). Format: binding, calf. As to conditions: 0.01 M phosphate, EDTA, buffer pH 7.0. Here is the method: ^a ΔTm = Tm of DNAdrug complex minut Tm of
purified calfthymus DNA.
as §1
Melting points were determined on a Thomas-Hoover melting point apparatus at a heating rate of 2° C./min. Dry column chromatography was accomplished with silicic acid powder (Bio-Sil A 100-200 mesh, Bio-Rad Laboratories, Inc.) or acid alumina (Woelm grade 1). Thin layer chromatography was performed on silica gel plates (Brinkmann Instrument, Inc.). For oxazinone analogues (2b), the silica gel plates were exposed to the vapor of conc. HCL in an air-tight container for 20 min before application of the compound for TLC. This procedure helped to prevent the streaking of the compounds in the chromatogram. Solvent systems were (A) EtOAc-acetone (2:1); (B) dry t-BuOH-C6 H6 --C6 H5 N (85:12.5:2.5); (C) Cifferri, the organic phase of the mixture EtOAc-MeOH-H2 O (20:L:20). High performance-liquid chromatography was carried out on a Varian Model 5020 gradient liquid chromatograph equipped with CD-111L chromatography data system and fitted with Varian reversed-phase C18 column with isocratic solvent systems, CH3 CN-5 mM NH4 OAc buffer, pH 6.4 (68:32), flow rate 15 mL/mn, with UV-visible variable and fixed wavelength dual detectors at 254,440, 500 and 252 nm. Spectra were determined on the following instruments: IR spectra were obtained on the Perkin-Elmer Model 237 Infra Cord with KBr micropellets or in CHCl3 solutions; UV-visible spectra were obtained on a Gilford 250 spectrophotometer, which, with the addition of a baseline reference compensator (Analog Multiplexer 5053) and thermoprogrammer, auto four cell programmer and thermoelectric cell holder 2577, were used to obtain thermal denaturation curves; specific rotational values were determined in CHCl3 solutions using a Cary 60 spectropolarimeter; NMR spectra were obtained in a JOEL FQ -90 MHz spectrometer equipped with Fourier transform. All elemental analyses were within +0.4%, unless it is specified otherwise.
DNA-DRUG BINDING BY DIFFERENCE SPECTRAL AND THERMAL DEVATURATION OF DNA (ΔTm) TECHNIQUES […]

The test system of series [5] is P388 lymphocytic leukemia. Kind of series: In vivo P388 assay. Set-up: species or system mice. The conditions noted are these: ip days 1,5,9; for % ILS (percent increase in life span) / MST (median survival time) / Cure (over 60 day survivors): at optimum dose; for % ILS (percent increase in life span) / MST (median survival time): CDF1 male mice; for MST (median survival time): control MST 11.0 days; for Cure (over 60 day survivors): group of 7 CDF1 male mice, average of 2 experiments. Here is the method: ^c 10^6 P388 cells implanted intraperitoneally on day 0 into a
group of 7 CDF1 male mice. Drugs were administered, also ip, in 10%
Me2 SO--saline on days 1,5,9. Test solutions were kept at 0-4.degree
C., protected from light.
These analogues were tested for antitumor activity against P388 lymphocytic leukemia in male CDF1 hybrid mice (Table 6). The tumor was implanted intraperitoneally (ip) with 10^6 cells. The drugs were administered once daily on days 1, 5, 9 beginning 1 day after implantation.

Regarding `Cc1c2oc3c(C)ccc(C(=O)N[C@@H]4C(=O)N[C@H](C(C)C)C(=O)N5CCC[C@H]5C(=O)N(C)CC(=O)N(C)[C@@H](C(C)C)C(=O)O[C@@H]4C)c3nc-2c(C(=O)N[C@@H]2C(=O)N[C@H](C(C)C)C(=O)N3CCC[C@H]3C(=O)N(C)CC(=O)N(C)[C@@H](C(C)C)C(=O)O[C@@H]2C)c(N)c1=O` [Compound 1a, Actinomycin D, reference compound] (I: T[dV]P[Sar][NMeV] / II: T[dV]P[Sar][NMeV]; ester I:1-I:C, II:1-II:C; linker I:N-II:N via Actinocin(9to1)), in series [1], the “In Vitro (CCRF-CEM) ID50” value came to 0.04 µg/mL. Besides, the “solubility in distilled water” value in series [2] (4° C.) worked out at 20500 µg/mL (≈ 16.3 mM). Besides, in series [2] (20° C.), the “solubility in distilled water” value was 900 µg/mL (≈ 0.717 mM). In series [3], the “Diff. CD Spectra -Δ[θ]max (nm)” value is listed as 40,000(390), the “DNA binding (in words)” value is on record as “binds to DNA strongly by intercalation” and the “Diff. Absorption Spectra -Δεmax (nm)” value was 8,240(425). In series [4], the “ΔTm (Tm of DNA-drug complex minus Tm of DNA)” value was found to be 7.1 ± 0.15 °C. Moreover, in series [5], the “% ILS (percent increase in life span)” value is 136%, the “MST (median survival time)” value was 26 days and the “Cure (over 60 day survivors)” value was 1/7.

For the molecule `Cc1nc2c(C(=O)N[C@@H]3C(=O)N[C@H](C(C)C)C(=O)N4CCC[C@H]4C(=O)N(C)CC(=O)N(C)[C@@H](C(C)C)C(=O)O[C@@H]3C)c3c(c(C)c2o1)Oc1c(C)ccc(C(=O)N[C@@H]2C(=O)N[C@H](C(C)C)C(=O)N4CCC[C@H]4C(=O)N(C)CC(=O)N(C)[C@@H](C(C)C)C(=O)O[C@@H]2C)c1N3` [Compound 3a], in series [1], the “In Vitro (CCRF-CEM) ID50” value came to 2.9 µg/mL. In series [3], the “Diff. CD Spectra -Δ[θ]max (nm)” value is recorded as “nil” and the “Diff. Absorption Spectra -Δεmax (nm)” value was “nil”. In series [4], the “ΔTm (Tm of DNA-drug complex minus Tm of DNA)” value is 0.0 ± 0.30 °C. Moreover, in series [5], the “% ILS (percent increase in life span)” value stood at 91%, the “MST (median survival time)” value is reported as 21 days and the “Cure (over 60 day survivors)” value was 0/7.

With `Cc1c2oc3c(C)ccc(C(=O)N[C@@H]4C(=O)N[C@H](C(C)C)C(=O)N5CCC[C@H]5C(=O)N(C)CC(=O)N(C)[C@@H](C(C)C)C(=O)O[C@@H]4C)c3nc-2c(C(=O)N[C@@H]2C(=O)N[C@H](C(C)C)C(=O)N3CCC[C@H]3C(=O)N(C)CC(=O)N(C)[C@@H](C(C)C)C(=O)O[C@@H]2C)cc1=O` [2-deamino AMD], in series [3], the “DNA binding (in words)” value was “binds to DNA strongly by intercalation”.

On to `Cc1c2oc3c(C)c(O)cc(C(=O)N[C@@H]4C(=O)N[C@H](C(C)C)C(=O)N5CCC[C@H]5C(=O)N(C)CC(=O)N(C)[C@@H](C(C)C)C(=O)O[C@@H]4C)c3nc-2c(C(=O)N[C@@H]2C(=O)N[C@H](C(C)C)C(=O)N3CCC[C@H]3C(=O)N(C)CC(=O)N(C)[C@@H](C(C)C)C(=O)O[C@@H]2C)c(N)c1=O` [Compound 1b, 7-HYDROXY ACTINOMYCIN D], for which, in series [3], the “Diff. CD Spectra -Δ[θ]max (nm)” value is on record as 31,000(485) and the “Diff. Absorption Spectra -Δεmax (nm)” value is 9,380(550). Further, the “ΔTm (Tm of DNA-drug complex minus Tm of DNA)” value in series [4] amounted to 6.7 ± 0.15 °C.

For `Cc1c2oc3c(C)c4oc(-c5ccccc5)nc4c(C(=O)N[C@@H]4C(=O)N[C@H](C(C)C)C(=O)N5CCC[C@H]5C(=O)N(C)CC(=O)N(C)[C@@H](C(C)C)C(=O)O[C@@H]4C)c3nc-2c(C(=O)N[C@@H]2C(=O)N[C@H](C(C)C)C(=O)N3CCC[C@H]3C(=O)N(C)CC(=O)N(C)[C@@H](C(C)C)C(=O)O[C@@H]2C)cc1=O` [Compound 4b, 2-PHENYL-9,11-DIMETHYL-8-OXO-8H-OXAZOLO[4,5-b]PHENOXAZINE 4,6-BIS[CARBONYL-L-THREONYL-D-VALYL-L-PROLYLSARCOSYL-L-N-METHYLVALINE-(THR EONINE HYDROXYL)] LACTONE], in series [1], the “In Vitro (CCRF-CEM) ID50” value was found to be 0.31 µg/mL. Also, the “activity against human cancer cells (in words)” value in series [1] (human cancer cells) is on record as “highest human antitumor effects”. Further, the “relative solubility in water (in words)” value in series [2] is “more soluble in water at 4 °C than at 20 °C”. In addition, in series [2] (4° C.), the “solubility in distilled water” value worked out at 11000 µg/mL (≈ 8.1 mM). Further, in series [2] (20° C.), the “solubility in distilled water” value was 1700 µg/mL (≈ 1.25 mM). Also, in series [5] (CDF1 mice), the “antitumor activity against P388 (in words)” value is recorded as “most active”. In series [5], the “% ILS (percent increase in life span)” value turned out to be 300%, the “MST (median survival time)” value is listed as 44 days and the “Cure (over 60 day survivors)” value is listed as 2/7.
